Laboratory results as given in ChEMBL document CHEMBL4000195, “Design and synthesis of novel 7-aminosubstituted pyrido[2,3-b]pyrazines exhibiting anti-breast cancer activity” (Eur J Med Chem, 2017).
The source made the active and inactive calls. No cut-off for these calls is given here.

How the values were obtained:
[1] = tested on: HCC1954; assay: Cytotoxicity against human HCC1954 cells at 10 uM by MTT assay; assay type: functional
[2] = target: Focal adhesion kinase 1 (Homo sapiens) (UniProt Q05397); assay: Inhibition of human wild type partial length FAK (D402 to R696 residues) expressed in bacterial expression system at 10 uM by KinomeScan method relative to control
[3] = target: RAC-alpha serine/threonine-protein kinase (Homo sapiens) (UniProt P31749); assay: Inhibition of human wild type partial length AKT1 expressed in bacterial expression system at 10 uM by KinomeScan method relative to control
[4] = target: Epidermal growth factor receptor (Homo sapiens) (UniProt P00533); assay: Inhibition of human EGFR (R669 to V1011 residues) expressed in bacterial expression system at 10 uM by KinomeScan method relative to control
[5] = tested on: Mus musculus; assay: Toxicity in NOD/SCID mouse assessed as phenotypic changes at 0.5 mg/kg, po administered as single dose; assay type: organism-based; settings: in vivo
[6] = AUC (0 to 24 hrs) in NOD/SCID mouse at 10 mg/kg, ip by LC-MS/MS method; assay type: ADME, organism-based; set-up: time < 24 hr, dose 10 mg/kg, route intraperitoneal; settings: in vivo
[7] = tested on: MCF7; assay: Cytotoxicity against human MCF7 cells at 10 uM by MTT assay; assay type: functional
[8] = tested on: MCF7; assay: Cytotoxicity against human MCF7 cells at 5 uM by MTT assay; assay type: functional
[9] = target: Fibroblast growth factor receptor 1 (Homo sapiens) (UniProt P11362); assay: Inhibition of human wild type partial length FGFR1 (P357 to V669 residues) expressed in bacterial expression system at 10 uM by KinomeScan method relative to control
[10] = target: Phosphatidylinositol 4,5-bisphosphate 3-kinase catalytic subunit alpha isoform (Homo sapiens, UniProt P42336, H1047R); assay: Inhibition of PI3Kalpha H1047R mutant (unknown origin) using PIP2 liposomes as substrate in presence of biotin-labeled PIP3 and GST-GRP1-PH by streptavidin-HRP based assays
[11] = tested on: HCC1954; assay: Anti-tumor activity against HER2-amplified human HCC1954 cells xenografted in NOD/SCID mouse assessed as tumor size at 10 mg/kg, ip administered once daily for 18 days measured after 1 hr last dose (reference value: 497 +/- 82 mm3); assay type: functional
[12] = tested on: Mus musculus; assay: In vivo inhibition of Akt phosphorylation at ser-473 residue in NOD/SCID mouse tumor xenografted with HER2-amplified human HCC1954 cells at 10 mg/kg, ip administered once daily for 18 days measured after 1 hr last dose by […]; assay type: functional, organism-based
[13] = Cmax in NOD/SCID mouse at 10 mg/kg, ip administered as single dose by LC-MS/MS method; assay type: ADME, organism-based; set-up: dose 10 mg/kg, route intraperitoneal; settings: in vivo
[14] = Cmax in NOD/SCID mouse at 40 mg/kg, ip administered as single dose by LC-MS/MS method; assay type: ADME, organism-based; set-up: dose 40 mg/kg, route intraperitoneal; settings: in vivo
[15] = target: Proto-oncogene tyrosine-protein kinase Src (Homo sapiens) (UniProt P12931); assay: Inhibition of human wild type partial length SRC (L240 to L536 residues) expressed in bacterial expression system at 10 uM by KinomeScan method relative to control
[16] = tested on: T47D; assay: Cytotoxicity against human T47D cells by MTT assay; assay type: functional, cell-based
[17] = AUC (0 to 8 hrs) in NOD/SCID mouse at 10 mg/kg, ip administered as single dose by LC-MS/MS method; assay type: ADME, organism-based; set-up: dose 10 mg/kg, time < 8 hr, route intraperitoneal; settings: in vivo
[18] = target: Tyrosine-protein kinase ZAP-70 (Homo sapiens) (UniProt P43403); assay: Inhibition of human wild type partial length ZAP70 (D20 to G299 residues) expressed in mammalian expression system at 10 uM by KinomeScan method relative to control
[19] = target: Dual specificity mitogen-activated protein kinase kinase 4 (Homo sapiens) (UniProt P45985); assay: Inhibition of human wild type partial length MEK4 (S84 to D399 residues) expressed in mammalian expression system at 10 uM by KinomeScan method relative to control
[20] = target: Platelet-derived growth factor receptor beta (Homo sapiens) (UniProt P09619); assay: Inhibition of human wild type partial length PDGFRB (V582 to Y1009 residues) expressed in bacterial expression system at 10 uM by KinomeScan method relative to control
[21] = target: Insulin-like growth factor 1 receptor (Homo sapiens) (UniProt P08069); assay: Inhibition of human wild type partial length IGF1R (L972 to D1294 residues) expressed in bacterial expression system at 10 uM by KinomeScan method relative to control
[22] = tested on: MDA-MB-231; assay: Cytotoxicity against human MDA-MB-231 cells at 5 uM by MTT assay; assay type: functional
[23] = tested on: Mus musculus; assay: In vivo inhibition of ERK1/2 phosphorylation at Thr202/Tyr204 residue in NOD/SCID mouse tumor xenografted with HER2-amplified human HCC1954 cells at 10 mg/kg, ip administered once daily for 18 days measured after 1 hr last dose; assay type: functional, organism-based
[24] = tested on: Mus musculus; assay: Toxicity in NOD/SCID mouse assessed as change in body weight at 10 mg/kg, ip administered once daily for 18 days measured after 1 hr last dose; assay type: organism-based; settings: in vivo
[25] = tested on: Mus musculus; assay: In vivo inhibition of Akt phosphorylation at Ser473 residue in NOD/SCID mouse tumor xenografted with HER2-amplified human HCC1954 cells at 10 mg/kg, ip administered once daily for 18 days measured after 1 hr last dose; assay type: functional, organism-based
[26] = target: Mitogen-activated protein kinase kinase kinase 1 (Homo sapiens) (UniProt Q13233); assay: Inhibition of human wild type partial length MAP3K1 (L1202 to W1512 residues) expressed in mammalian expression system at 10 uM by KinomeScan method relative to control
[27] = target: Macrophage colony-stimulating factor 1 receptor (Homo sapiens) (UniProt P07333); assay: Inhibition of human wild type partial length CSF1R (I564 to S939 residues) expressed in bacterial expression system at 10 uM by KinomeScan method relative to control
[28] = target: Glycogen synthase kinase-3 (Sus scrofa) (UniProt B2LUN4+I6LNT8); assay: Inhibition of pig GSK3alpha/beta using GS-1 as substrate in presence of [gamma33P]ATP after 30 mins by scintillation counting method
[29] = target: Tyrosine-protein kinase Tec (Homo sapiens) (UniProt P42680); assay: Inhibition of human wild type partial length TEC (L341 to D620 residues) expressed in bacterial expression system at 10 uM by KinomeScan method relative to control
[30] = target: Receptor-type tyrosine-protein kinase FLT3 (Homo sapiens) (UniProt P36888); assay: Inhibition of recombinant human GST-tagged FLT3 (571 to 993 residues) transphosphorylation activity expressed in baculovirus infected Sf9 cells using poly[Glu:Tyr] (4:1) as substrate after 60 mins
[31] = target: Dual specificity protein kinase CLK1 (Mus musculus) (UniProt P22518); assay: Inhibition of mouse CLK1
[32] = tested on: Phosphatidylinositol 4,5-bisphosphate 3-kinase catalytic subunit alpha isoform (Homo sapiens), P42336 [H1047Y]; assay: Inhibition of human wild type partial length PIK3CA H1047Y mutant (R108 to N1068 residues) expressed in mammalian expression system at 10 uM by KinomeScan method relative to control

Sequence of Receptor-type tyrosine-protein kinase FLT3 (Homo sapiens) (P36888 whole entry, the tested form may be a part): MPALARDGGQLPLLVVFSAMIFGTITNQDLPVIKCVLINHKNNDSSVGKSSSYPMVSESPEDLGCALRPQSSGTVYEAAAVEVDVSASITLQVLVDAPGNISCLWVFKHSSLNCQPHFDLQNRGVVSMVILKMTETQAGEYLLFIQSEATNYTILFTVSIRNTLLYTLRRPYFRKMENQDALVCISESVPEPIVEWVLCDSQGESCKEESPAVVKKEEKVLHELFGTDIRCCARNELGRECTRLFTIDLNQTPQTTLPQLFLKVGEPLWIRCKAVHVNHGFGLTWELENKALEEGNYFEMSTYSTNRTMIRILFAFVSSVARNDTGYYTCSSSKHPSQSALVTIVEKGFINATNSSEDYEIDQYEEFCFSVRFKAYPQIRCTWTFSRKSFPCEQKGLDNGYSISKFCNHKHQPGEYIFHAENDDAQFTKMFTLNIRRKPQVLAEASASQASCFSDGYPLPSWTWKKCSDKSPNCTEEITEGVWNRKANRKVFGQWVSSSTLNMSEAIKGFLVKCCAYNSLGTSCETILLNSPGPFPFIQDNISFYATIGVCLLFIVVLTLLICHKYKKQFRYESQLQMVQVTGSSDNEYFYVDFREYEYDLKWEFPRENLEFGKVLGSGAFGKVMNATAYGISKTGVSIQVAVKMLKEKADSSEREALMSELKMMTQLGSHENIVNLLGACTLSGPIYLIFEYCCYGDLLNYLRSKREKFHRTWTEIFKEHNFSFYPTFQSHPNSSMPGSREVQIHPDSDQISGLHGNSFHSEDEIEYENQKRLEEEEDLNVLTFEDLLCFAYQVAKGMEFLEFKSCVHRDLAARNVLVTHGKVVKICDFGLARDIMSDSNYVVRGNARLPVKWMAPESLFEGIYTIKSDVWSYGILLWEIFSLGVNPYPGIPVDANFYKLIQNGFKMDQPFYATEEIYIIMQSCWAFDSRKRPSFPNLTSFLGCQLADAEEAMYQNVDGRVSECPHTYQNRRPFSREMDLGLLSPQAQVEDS
Sequence of Tyrosine-protein kinase ZAP-70 (Homo sapiens) (P43403 whole entry, the tested form may be a part): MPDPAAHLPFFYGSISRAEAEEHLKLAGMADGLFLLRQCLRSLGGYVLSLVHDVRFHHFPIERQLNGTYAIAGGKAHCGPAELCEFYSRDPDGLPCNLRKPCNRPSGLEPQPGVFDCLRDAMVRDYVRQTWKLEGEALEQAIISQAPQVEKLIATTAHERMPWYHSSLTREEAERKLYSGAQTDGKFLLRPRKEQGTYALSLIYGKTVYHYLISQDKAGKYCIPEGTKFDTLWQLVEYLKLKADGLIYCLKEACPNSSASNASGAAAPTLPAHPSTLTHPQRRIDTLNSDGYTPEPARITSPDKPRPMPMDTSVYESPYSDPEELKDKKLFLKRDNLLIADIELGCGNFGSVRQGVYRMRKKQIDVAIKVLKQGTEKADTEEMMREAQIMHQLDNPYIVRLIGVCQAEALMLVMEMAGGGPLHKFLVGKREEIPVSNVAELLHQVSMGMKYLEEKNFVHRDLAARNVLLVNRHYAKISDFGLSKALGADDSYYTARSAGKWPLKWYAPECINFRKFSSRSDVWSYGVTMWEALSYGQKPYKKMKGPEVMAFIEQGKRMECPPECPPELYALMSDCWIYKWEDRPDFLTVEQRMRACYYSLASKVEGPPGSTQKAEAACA
Sequence of Insulin-like growth factor 1 receptor (Homo sapiens) (P08069 31-736 limits assumed): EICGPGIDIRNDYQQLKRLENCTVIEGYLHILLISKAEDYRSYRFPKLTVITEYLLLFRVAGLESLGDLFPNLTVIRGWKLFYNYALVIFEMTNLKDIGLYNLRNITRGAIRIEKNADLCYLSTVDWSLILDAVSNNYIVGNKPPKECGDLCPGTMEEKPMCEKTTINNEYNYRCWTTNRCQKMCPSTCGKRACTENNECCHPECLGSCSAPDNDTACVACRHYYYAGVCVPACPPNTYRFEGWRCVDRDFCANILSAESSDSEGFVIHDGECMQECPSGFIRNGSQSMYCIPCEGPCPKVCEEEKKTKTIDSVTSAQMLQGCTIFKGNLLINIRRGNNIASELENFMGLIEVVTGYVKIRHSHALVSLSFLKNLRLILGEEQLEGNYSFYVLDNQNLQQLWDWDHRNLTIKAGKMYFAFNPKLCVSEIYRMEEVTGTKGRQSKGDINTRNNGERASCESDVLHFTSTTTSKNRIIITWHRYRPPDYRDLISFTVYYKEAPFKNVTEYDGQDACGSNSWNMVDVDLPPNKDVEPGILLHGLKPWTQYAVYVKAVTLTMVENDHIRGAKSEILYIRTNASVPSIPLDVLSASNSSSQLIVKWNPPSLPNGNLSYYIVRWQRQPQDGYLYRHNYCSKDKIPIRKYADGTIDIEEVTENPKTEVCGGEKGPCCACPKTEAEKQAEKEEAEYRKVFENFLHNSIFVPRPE
Sequence of Insulin-like growth factor 1 receptor (Homo sapiens) (P08069 741-1367 limits assumed): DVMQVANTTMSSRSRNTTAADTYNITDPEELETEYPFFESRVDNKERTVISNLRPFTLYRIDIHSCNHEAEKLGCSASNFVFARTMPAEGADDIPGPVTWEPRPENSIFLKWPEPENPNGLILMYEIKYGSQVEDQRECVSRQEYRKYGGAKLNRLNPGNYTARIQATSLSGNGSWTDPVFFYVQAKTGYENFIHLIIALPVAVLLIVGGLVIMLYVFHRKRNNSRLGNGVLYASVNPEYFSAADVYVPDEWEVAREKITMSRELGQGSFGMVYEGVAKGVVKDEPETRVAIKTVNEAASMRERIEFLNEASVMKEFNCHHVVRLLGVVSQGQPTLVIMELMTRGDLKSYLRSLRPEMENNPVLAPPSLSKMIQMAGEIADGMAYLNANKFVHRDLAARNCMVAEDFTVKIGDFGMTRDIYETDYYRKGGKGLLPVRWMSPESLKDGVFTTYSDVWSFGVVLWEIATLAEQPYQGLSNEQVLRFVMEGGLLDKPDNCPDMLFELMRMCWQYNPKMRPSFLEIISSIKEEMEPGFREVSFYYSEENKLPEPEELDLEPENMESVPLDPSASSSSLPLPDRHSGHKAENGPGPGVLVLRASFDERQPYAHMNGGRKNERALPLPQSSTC
Sequence of Mitogen-activated protein kinase kinase kinase 1 (Homo sapiens) (Q13233 whole entry, the tested form may be a part): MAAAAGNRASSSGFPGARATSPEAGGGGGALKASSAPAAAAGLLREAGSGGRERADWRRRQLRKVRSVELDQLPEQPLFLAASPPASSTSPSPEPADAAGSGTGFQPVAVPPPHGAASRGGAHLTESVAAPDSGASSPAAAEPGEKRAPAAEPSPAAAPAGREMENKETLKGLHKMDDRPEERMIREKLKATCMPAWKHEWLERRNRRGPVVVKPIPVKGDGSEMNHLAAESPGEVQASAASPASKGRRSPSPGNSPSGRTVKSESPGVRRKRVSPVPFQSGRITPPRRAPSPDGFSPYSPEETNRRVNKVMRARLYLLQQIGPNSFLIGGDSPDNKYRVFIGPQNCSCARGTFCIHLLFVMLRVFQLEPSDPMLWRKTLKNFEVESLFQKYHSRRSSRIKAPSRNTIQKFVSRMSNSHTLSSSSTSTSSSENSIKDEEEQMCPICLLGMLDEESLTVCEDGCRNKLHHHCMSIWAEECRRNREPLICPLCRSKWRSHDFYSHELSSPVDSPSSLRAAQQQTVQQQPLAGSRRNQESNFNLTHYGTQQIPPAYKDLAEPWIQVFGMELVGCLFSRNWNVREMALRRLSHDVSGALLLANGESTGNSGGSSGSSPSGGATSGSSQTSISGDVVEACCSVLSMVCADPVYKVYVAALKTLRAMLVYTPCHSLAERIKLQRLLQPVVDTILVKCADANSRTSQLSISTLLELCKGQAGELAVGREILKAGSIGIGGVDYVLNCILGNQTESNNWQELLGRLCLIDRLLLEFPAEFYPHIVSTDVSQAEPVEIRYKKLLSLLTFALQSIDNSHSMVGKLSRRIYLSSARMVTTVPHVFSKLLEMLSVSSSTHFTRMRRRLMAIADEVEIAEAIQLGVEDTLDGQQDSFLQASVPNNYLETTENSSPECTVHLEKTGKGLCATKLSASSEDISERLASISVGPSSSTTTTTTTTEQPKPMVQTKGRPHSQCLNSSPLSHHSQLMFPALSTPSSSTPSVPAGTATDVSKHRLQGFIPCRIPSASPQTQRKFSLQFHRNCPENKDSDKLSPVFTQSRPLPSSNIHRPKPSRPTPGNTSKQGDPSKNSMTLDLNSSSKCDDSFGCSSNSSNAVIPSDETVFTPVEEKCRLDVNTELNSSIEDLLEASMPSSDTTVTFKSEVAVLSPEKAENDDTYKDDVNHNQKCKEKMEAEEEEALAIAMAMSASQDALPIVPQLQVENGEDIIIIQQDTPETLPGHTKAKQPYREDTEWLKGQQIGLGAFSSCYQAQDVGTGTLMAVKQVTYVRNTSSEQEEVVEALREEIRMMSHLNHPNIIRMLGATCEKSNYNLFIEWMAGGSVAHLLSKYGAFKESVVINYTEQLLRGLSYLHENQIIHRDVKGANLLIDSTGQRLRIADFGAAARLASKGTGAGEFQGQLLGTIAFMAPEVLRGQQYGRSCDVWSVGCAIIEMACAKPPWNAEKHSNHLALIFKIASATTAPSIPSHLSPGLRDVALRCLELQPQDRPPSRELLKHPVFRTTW
Sequence of Dual specificity protein kinase CLK1 (Mus musculus) (P22518 whole entry, looked up, the tested form may be a part, canonical isoform): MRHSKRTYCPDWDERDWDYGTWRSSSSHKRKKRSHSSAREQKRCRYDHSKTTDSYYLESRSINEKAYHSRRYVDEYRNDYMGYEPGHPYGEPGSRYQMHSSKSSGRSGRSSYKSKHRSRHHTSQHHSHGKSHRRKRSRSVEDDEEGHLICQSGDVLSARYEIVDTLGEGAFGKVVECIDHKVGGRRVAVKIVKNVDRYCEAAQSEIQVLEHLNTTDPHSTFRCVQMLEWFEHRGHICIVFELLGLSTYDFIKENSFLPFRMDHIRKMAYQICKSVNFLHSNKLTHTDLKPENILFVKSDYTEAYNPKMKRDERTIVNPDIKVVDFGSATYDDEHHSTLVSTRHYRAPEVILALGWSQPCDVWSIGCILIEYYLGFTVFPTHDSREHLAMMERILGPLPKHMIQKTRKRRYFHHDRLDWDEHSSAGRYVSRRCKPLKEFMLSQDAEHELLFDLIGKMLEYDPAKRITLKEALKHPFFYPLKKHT

inhibition [2]: 0%
inhibition [3]: 3%
inhibition [4]: 8%
AUC(0-t) at 24 h [6]: 39.1 µM·h
inhibition [9]: 18%
IC50 [10]: 22 µM
Cmax [13]: 4.3 to 4.32 µM
Cmax [14]: 18.7 µM
inhibition [15]: 3%
AUC(0-t) at 8 h [17]: 19.9 µM·h
inhibition [18]: 0%
inhibition [19]: 0%
inhibition [20]: 0%
inhibition [21]: 6%
inhibition [26]: 0%
inhibition [27]: 0%
inhibition [28]: inactive
inhibition [29]: 9%
inhibition [30]: inactive
inhibition [31]: inactive
inhibition [32]: 8%
SMILES: Cc1nc2nc(Sc3ccccc3)cnc2cc1NC(=O)Nc1ccccc1
Activity [1]: >50%
Activity [5]: Non-Toxic
Activity [7]: >50%
Activity [8]: >50%
Activity [11]: 150 mm3
inhibition [12]: Active
IC50 [16]: 5.7 µM
Activity [22]: >50%
inhibition [23]: Active
Activity [24]: Non-Toxic
inhibition [25]: Active
